Experimental data from patent publication US20240209011A1, “HETEROAROMATIC PHOSPHONIUM SALTS FOR TREATING CANCER” (FLORATEK PHARMA S.A., priority 2021, published 2024).

Key:
Assay type in all cases: cell-based
[1] = tested on: BR-05-0014E; assay: PDX-derived cell culture cytotoxicity (CellTiter-Glo); details: 120 h; breast PDX BR-05-0014E; absolute IC50; 5 days
Experimental: (§1) PDX-derived cell cultures were obtained from tumors explanted from mice and isolated by mechanical and enzymatic dissociation. […] Cells were harvested and seeded in 96-wells plates at a density of 1.25 to 5×10^3 cells/well for cytotoxicity assays. Cells were incubated 48 h at 37° C. prior to addition of test molecules and vehicle (DMSO, 0.1%) at desired final concentrations. Cell viability was assessed before drugs' addition (To) and 5 days after test molecules addition by measuring ATP cell content using CellTiter-Glo® Luminescent Cell Viability Assay (Promega) according to the manufacturer's instructions. Luciferase activity was measured on a luminometer (PerkinElmer® EnVision™). Each concentration of compounds was tested in triplicate.
(§2) Viability was calculated as a percentage of ATP value compared to vehicle treated controls.
(§3) For PDX primary cell cultures, the tumour tissue was washed with PBS containing antibiotic-antimycotic and non-tumour tissue and necrotic tumour tissues were separated. The tumour tissue was transferred to a new dish and cut into 1-2 mm^3 fragments, resuspended in RPMI-1640 medium and centrifuged at 1,200 rpm for 6 min at room temperature. The pelleted material was resuspended with 15 mL of Tumour Cell Digestion Solution and incubated at 37° C. for 1 hour with agitation. Following further addition of media, centrifugation and passage through a […] cell strainer, the homogenous cell mixture was layered onto 15 mL of Ficoll-Paque PLUS in a 50 mL conical tube and centrifuged for 15 min at 1,600 rpm. The interface cells were collected, washed with media, separated by centrifugation at 1,200 rpm. The cell pellet was resuspended in serum free media supplemented with growth factors. 10,000 cells/wells were plated in a 96 well plate and incubated at 37° C., 5% CO2, 95% air and 100% relative humidity overnight. The cytotoxicity assay was conducted as above. IC50 values represent absolute IC50.

[2] = tested on: BR-05-0399; assay: as above; details: 120 h; breast PDX BR-05-0399; absolute IC50; 5 days
Experimental: as §1, §2, §3

[3] = tested on: CH-17-0091; assay: as above; details: 120 h; bile duct PDX CH-17-0091; absolute IC50; 5 days
Experimental: as §1, §2, §3

[4] = tested on: CO-04-0700; assay: as above; details: 120 h; colon PDX CO-04-0700; absolute IC50; 5 days
Experimental: as §1, §2, §3

[5] = tested on: CO-04-0701; assay: as above; details: 120 h; colon PDX CO-04-0701; absolute IC50; 5 days
Experimental: as §1, §2, §3

[6] = tested on: CO-04-0722; assay: as above; details: 120 h; colon PDX CO-04-0722; absolute IC50; 5 days
Experimental: as §1, §2, §3

[7] = tested on: EN-11-0101; assay: as above; details: 120 h; endometrial PDX EN-11-0101; absolute IC50; 5 days
Experimental: as §1, §2, §3

[8] = tested on: ES-06-0002; assay: as above; details: 120 h; esophagus PDX ES-06-0002; absolute IC50; 5 days
Experimental: as §1, §2, §3

[9] = tested on: ES-06-0122; assay: as above; details: 120 h; esophagus PDX ES-06-0122; absolute IC50; 5 days
Experimental: as §1, §2, §3

[10] = tested on: HN-13-0020; assay: as above; details: 120 h; head and neck PDX HN-13-0020; absolute IC50; 5 days
Experimental: as §1, §2, §3

[11] = tested on: KI-12-0062; assay: as above; details: 120 h; kidney PDX KI-12-0062; absolute IC50; 5 days
Experimental: as §1, §2, §3

[12] = tested on: LU-01-0004; assay: as above; details: 120 h; lung PDX LU-01-0004; absolute IC50; 5 days
Experimental: as §1, §2, §3

[13] = tested on: LU-01-0010; assay: as above; details: 120 h; lung PDX LU-01-0010; absolute IC50; 5 days
Experimental: as §1, §2, §3

[14] = tested on: LU-01-0025; assay: as above; details: 120 h; lung PDX LU-01-0025; absolute IC50; 5 days
Experimental: as §1, §2, §3

[15] = tested on: LU-01-0027; assay: as above; details: 120 h; lung PDX LU-01-0027; absolute IC50; 5 days
Experimental: as §1, §2, §3

[16] = tested on: LU-01-0604; assay: as above; details: 120 h; lung PDX LU-01-0604; absolute IC50; 5 days
Experimental: as §1, §2, §3

[17] = tested on: LY-24-0340; assay: as above; details: 120 h; lymphoma PDX LY-24-0340; absolute IC50; 5 days
Experimental: as §1, §2, §3

[18] = tested on: ME-21-0028; assay: as above; details: 120 h; skin melanoma PDX ME-21-0028; absolute IC50; 5 days
Experimental: as §1, §2, §3

[19] = tested on: PC-07-0045; assay: as above; details: 120 h; pancreatic PDX PC-07-0045; absolute IC50; 5 days
Experimental: as §1, §2, §3

[20] = tested on: PC-07-0059; assay: as above; details: 120 h; pancreatic PDX PC-07-0059; absolute IC50; 5 days
Experimental: as §1, §2, §3

[21] = tested on: ST-02-0007; assay: as above; details: 120 h; stomach PDX ST-02-0007; absolute IC50; 5 days
Experimental: as §1, §2, §3

[22] = tested on: ST-02-0012; assay: as above; details: 120 h; stomach PDX ST-02-0012; absolute IC50; 5 days
Experimental: as §1, §2, §3

[23] = tested on: ST-02-0173; assay: as above; details: 120 h; stomach PDX ST-02-0173; absolute IC50; 5 days
Experimental: as §1, §2, §3

[24] = tested on: ST-02-0322; assay: as above; details: 120 h; stomach PDX ST-02-0322; absolute IC50; 5 days
Experimental: as §1, §2, §3

[25] = tested on: esophagus PDX; assay: Activity against esophagus PDX; details: esophagus PDX growth; summary of Table 10
Experimental: as §1, §2, §3

Compound	IC50 [1] [µM]	IC50 [2] [µM]	IC50 [3] [µM]	IC50 [4] [µM]	IC50 [5] [µM]	IC50 [6] [µM]	IC50 [7] [µM]	IC50 [8] [µM]	IC50 [9] [µM]	IC50 [10] [µM]	IC50 [11] [µM]	IC50 [12] [µM]	IC50 [13] [µM]	IC50 [14] [µM]	IC50 [15] [µM]	IC50 [16] [µM]	IC50 [17] [µM]	IC50 [18] [µM]	IC50 [19] [µM]	IC50 [20] [µM]	other results
O=c1cc(-c2ccc(CCCC[P+](c3ccccc3)(c3ccccc3)c3ccccc3)cc2)oc2c3c(ccc12)OCO3.[Br-] [SND123, 4-[4-(6-oxo-[1,3]dioxolo[4,5-h]chromen-8-yl)phenyl]butyl-triphenylphosphonium bromide]	0.98	2.1	3	2.6	3.4	2.1	1.8	2.9	4.5	1.5	3	3	0.8	2.4	5.9	0.35	0.4	0.8	4	2.7	IC50 [21]: 1.5 µM; IC50 [22]: 0.3 µM; IC50 [23]: 2.2 µM; IC50 [24]: 5.2 µM; IC50 [25]: < 20 µM
CCNC(=O)Oc1ccc2c(=O)cc(-c3ccc(CCCC[P+](c4ccccc4)(c4ccccc4)c4ccccc4)cc3)oc2c1OC(=O)NCC.[Br-] [SND124, 4-[4-[7,8-Bis(ethylcarbamoyloxy)-4-oxo-chromen-2-yl]phenyl]-butyltriphenylphosphonium bromide]	7.2	5.2	5.4	2.3	21.8	3.2	9.6	5.6	8.5	2	8.5	7.1	7	4.2	9.3	7.8	3.7	7.7	7	4.2	IC50 [21]: 10.2 µM; IC50 [22]: 8.2 µM; IC50 [23]: 11.3 µM; IC50 [24]: 10.6 µM; IC50 [25]: < 20 µM
COc1c(O)ccc2c(=O)cc(-c3ccc(CCCC[P+](c4ccccc4)(c4ccccc4)c4ccccc4)cc3)oc12.[Br-] [SND140, (4-(4-(7-hydroxy-8-methoxy-4-oxo-4H-chromen-2-yl)phenyl)butyl)triphenylphosphonium bromide]	10.4	6	> 50	12.8	13.8	11.6	6.2	9.66	13.5	9.1	16.8	11.7	3	10.5	16	7.7	4.1	1.1	13.2	20.4	IC50 [21]: 12 µM; IC50 [22]: 4.9 µM; IC50 [23]: 9.8 µM; IC50 [24]: 13.3 µM; IC50 [25]: < 20 µM
CCNC(=O)Oc1ccc2c(=O)cc(-c3ccc(CCCC[P+](c4ccccc4)(c4ccccc4)c4ccccc4)cc3)oc2c1O.[Br-] [SND126A, 4-[4-[7-(Ethylcarbamoyloxy)-8-hydroxy-4-oxo-chromen-2-yl]phenyl]butyltriphenylphosphonium bromide]	7.7	6.5	7.2	2.3	> 30	3.4	10.2	9.3	8.3	2.7	11	8.4	7.6	5.3	12	8.2	4.1	8	7.7	4.9	IC50 [21]: 10.7 µM; IC50 [22]: 8.9 µM; IC50 [23]: 14.7 µM; IC50 [24]: 9.8 µM; IC50 [25]: < 20 µM
